Source: patent US20050014676A1, “Methods for delaying or inducing labor” (Boston Biomedical Research Institute, priority 2003, published 2005)
“Also recorded” adds a separate entry of the source.

Key:
[1] = test system: 20-kDa myosin light chain (LC20); assay: Measurement of myosin light chain 20 phosphorylation (LC20-P) in permeabilized myometrial strips; parameters: species or system rat; settings: 51 mM KCl stimulated for 4 min myometrial strips
Description: Measurements of myosin light chain 20 phosphorylation (LC20-P). Tissue preparation was as described above. After equilibration and stretching, the myometrial strips were permeabilized with 20 μg/ml alpha-toxin (List Biological Lab, Campbell, Calif.) at 34° C. for 30 min. The intracellular Ca2+ concentration was clamped at pCa7.0 for 12 min to prevent an artifactual triggering of contractions in response to the freezing solution. The measurement of LC20-P was performed by glycerol urea gels and western blots as previously published (Je et al., J. Physiol. 537, 567-577 (2001)). Moles phosphate per mole myosin light chain was calculated by dividing the density of the phosphorylated band by the sum of densities of phosphorylated plus the unphosphorylated bands.

pregnant rats and pups = assay: Fetal weight and toxicity to mothers and pups; type: in vivo, rat; settings: for Fetal number/rat / Fetal weight: gestation day 20; for Fetal weight: (n) in brackets
Text: Animals and treatment groups. All procedures were approved by our institutional animal care and use committee (IACUC). Sprague-Dawley nonpregnant and time-mated, primigravid pregnant rats (day 1=sperm positive, Taconic, Germantown, N.Y.) were used for the experiments. They were housed in a constant-temperature room with a 12-hr light and 12-hr dark cycle. Food and water were available ad libitum. The rats were divided into five groups: nonpregnant (NP), sham, RU486 treated (RU), U0126+RU486 treated (U0+RU) and spontaneous labor (SL). The sequential scheme of the experiment is illustrated in FIG. 1.
Induction of preterm labor: In the RU group, rats (n=6) were treated with RU486 subcutaneously (SC) at dose of 2 mg/kg (concentration of 3 mg/ml in sunflower seed oil) at 10 am on day 19 of pregnancy. Then the rats were closely observed for signs of labor on day 20 of pregnancy.
U0126 treatment: In the U0+RU group, 18-day pregnant rats (n=6) were treated with U0126 at dose of 100 mg/kg, SC, q8h (7 am, 3 pm and 11 pm). U0126 was dissolved at a concentration of 200 mg/ml in DMSO. On day 19 of pregnancy, the rats were administrated RU486 at 10 am for preterm labor induction. The U0126 treatment continued till the onset of labor.
Tissue preparation and force recording.

myometrial strips = assay: In vitro myometrial contractility (isometric force, AUC) of strips from treated rats
[2] = test system: Sprague-Dawley pregnant rats; assay: RU486-induced preterm labor in rats, onset of labor; settings: for average delivery time after RU486 administration: RU486 2 mg/kg SC at 10 am day 19 of pregnancy, U0126 100 mg/kg SC q8h from day 18 until labor, mean±SEM
[3] = test system: high molecular weight caldesmon (h-CaD); assay: Western blot of myometrial h-CaD phosphorylation (Ser789); parameters: species or system rat; settings: myometrium at onset of labor
Description: (§1) Western blot analysis. The muscle strips were quick-frozen in a dry ice acetone/DTT/TCA slurry at the end of force recording experiment. Samples were homogenized in a buffer containing 20 mM MOPS, 4% SDS, 1% Triton, 10% glycerol, 10 mM DTT, 20 mM β-glycerophosphate, 5.5 μM leupeptin, 5.5 μM pepstatin A, 20 KIU aprotinin, 2 mM Na3VO4, 1 mM NaF, 20 μM 4-(2-aminorthyl) benzenesulphonyl fluoride (AEBSF) and 100 μM ZnCl2. Protein-matched samples were SDS-PAGE electrophoresed, transferred to Immobilon-P membrane (Millipore, Bedford, Mass.), and subjected to immunostaining using the appropriate antibody. Blots were visualized with a SuperSignal West Pico Peroxide Solution (Pierce, Rockford, Ill.). The images were detected with a chemiluminescence screen and quantified with a BioRad Molecular Imager and Multi-Analyst software.

ERK2 = assay: Western blot of myometrial ERK2 phosphorylation (p-ERK2/ERK2); parameters: species or system rat; settings: myometrium at onset of labor
Description: as §1

Row | Compound | LC20-P level, positive control [1] | Fetal number/rat (pregnant rats and pups) | Fetal weight (pregnant rats and pups) | area under force curve (AUC) normalized to tissue dry weight (myometrial strips; strips from treated rats at labor, force integrated over 15 min) | average delivery time after RU486 administration ([2]; n=6) | average gestational length ([2]; RU486-induced preterm labor, Mean±SD, n=6) | signs of toxicity to mother or offspring (pregnant rats and pups; U0126 at doses sufficient to delay preterm labor) | effect on fetal weight (pregnant rats and pups; U0126 treatment) | daily weight gain or general behavior of pregnant rats, U0+RU vs RU group (pregnant rats and pups; data not shown) | myometrial AUC once labor commenced, vs RU486 or spontaneous labor (myometrial strips; U0+RU group) | h-CaD phosphorylation normalized to CaD protein, words [3] | ERK2 phosphorylation (p-ERK2/ERK2), words (ERK2) | delay of RU486-induced preterm labor ([2]; U0126 pretreatment, rats)
1 | [Cl-].[K+] [KCI] | 39.68±3.33 | – | – | – | – | – | – | – | – | – | – | – | –
2 | CC#C[C@]1(O)CC[C@H]2[C@@H]3CCC4=CC(=O)CCC4=C3[C@@H](c3ccc(N(C)C)cc3)C[C@@]21C [RU486, 11 β-[4-Dimethylamino] phenyl-17β-hydroxy-17-[1-propynyl] estra-4,9-dien-3-one] | – | 13.4 | 2.46 ± 0.068 (16) grams | 381.49 ± 44.92 g·s/mg | 22.25 ± 0.24 h | 20.35 ± 0.02 days | – | – | – | – | – | – | –
3 | N#CC(=C(N)Sc1ccccc1N)C(C#N)=C(N)Sc1ccccc1N [U0126, 1,4-diamino-2,3-dicyano-1,4-bis (2-aminophenylthio) butadiene] | – | 12.3 | 2.46 ± 0.036 (31) grams | – | 25.18 ± 0.64 h | – | no apparent signs of toxicity; also recorded: no obvious signs of toxicity | did not affect fetal weight | no difference | indistinguishable | indistinguishable | indistinguishable | delays RU486-induced preterm labor in a statistically significant manner
